Where a name gives a salt, the structure may show the parent alone.
Target: T1, Recombinant human IKKβ (residues 1-737) (Homo sapiens, UniProt O14920)
T1 construct: Recombinant human IKKβ (residues 1-737); GST (C); made in house
T1 sequence (O14920 1-737): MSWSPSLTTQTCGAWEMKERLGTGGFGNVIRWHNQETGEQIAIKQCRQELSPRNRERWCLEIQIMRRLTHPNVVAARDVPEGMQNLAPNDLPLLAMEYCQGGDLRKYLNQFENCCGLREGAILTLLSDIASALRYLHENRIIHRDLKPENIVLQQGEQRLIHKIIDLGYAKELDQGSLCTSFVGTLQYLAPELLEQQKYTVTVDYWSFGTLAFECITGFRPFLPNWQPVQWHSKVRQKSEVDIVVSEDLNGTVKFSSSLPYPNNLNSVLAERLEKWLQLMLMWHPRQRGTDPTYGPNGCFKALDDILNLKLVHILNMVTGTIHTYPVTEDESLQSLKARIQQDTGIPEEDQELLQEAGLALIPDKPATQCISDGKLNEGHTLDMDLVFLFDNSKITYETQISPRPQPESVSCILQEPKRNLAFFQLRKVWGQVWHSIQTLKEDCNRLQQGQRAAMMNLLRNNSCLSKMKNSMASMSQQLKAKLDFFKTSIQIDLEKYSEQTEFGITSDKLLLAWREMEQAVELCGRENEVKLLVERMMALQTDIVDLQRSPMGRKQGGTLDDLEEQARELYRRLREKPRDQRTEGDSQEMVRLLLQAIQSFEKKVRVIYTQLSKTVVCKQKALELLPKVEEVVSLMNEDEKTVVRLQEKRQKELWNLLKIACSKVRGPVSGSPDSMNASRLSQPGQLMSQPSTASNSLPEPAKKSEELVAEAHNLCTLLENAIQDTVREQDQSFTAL
Assay: IKK2 assay (TR-FRET)
Type: biochemical
Conditions: ATP 1 μM final, read-out: pIC50 against IKK2 (converted)
Protocol: Recombinant human IKKβ (residues 1-737) was expressed in baculovirus as a C-terminal GST-tagged fusion protein, and its activity was assessed using a time-resolved fluorescence resonance energy transfer (TR-FRET) assay. Briefly, IKK2 (0.5 nM-5 nM final) diluted in assay buffer (50 mM HEPES, 10 mM MgCl2, 1 mM CHAPS pH 7.4 with 1 mM DTT and 0.01% w/v BSA) was added to wells containing various concentrations of compound or DMSO vehicle (1.7% final). The reaction was initiated by the addition of GST-IB substrate (25 nM final)/ATP (1 μM final), in a total volume of 6 μl. The reaction was incubated for 15 minutes at room temperature, then terminated by the addition of 3 μl of detection reagent in buffer containing 50 mM EDTA (100 mM HEPES pH 7.4, 150 mM NaCl, 50 mM EDTA and 0.01% w/v BSA) containing antiphosphoserine-IB-32/36 monoclonal antibody 12C2 (Cell Signalling Technology, Beverly Mass., USA) labelled with W-1024 europium chelate (Wallac OY, Turku, Finland), and an APC-labelled anti-GST antibody (Prozyme, San Leandro, Calif., USA) was added and the reaction was further incubated for 60 minutes at room temperature. The degree of phosphorylation of GST-IB was measured using a BMG Rubystar plate reader (BMG Labtech, Aylesbury, UK) as a ratio of specific 665 nm energy transfer signal to reference europium 620 nm signal.

Row | Compound | IC50 [µM]
1 | CCS(=O)(=O)N1CCC(c2c[nH]c3c(C(N)=O)cc(-c4ccc(OC)c(CNC)c4)cc23)CC1 [Example 266, 3-[1-(ethylsulfonyl)-4-piperidinyl]-5-[3-[(methylamino)methyl]-4-(methyloxy)phenyl]-1H-indole-7-carboxamide trifluoroacetate] | ≤ 10
2 | CCS(=O)(=O)N1CCC(c2c[nH]c3c(C(N)=O)cc(-c4ccc(OC)c(CNCC(C)(C)C)c4)cc23)CC1 [Example 267, 5-[3-{[(2,2-dimethylpropyl)amino]methyl}-4-(methyloxy)phenyl]-3-[1-(ethylsulfonyl)-4-piperidinyl]-1H-indole-7-carboxamide trifluoroacetate] | ≤ 10
3 | CCS(=O)(=O)N1CCC(c2c[nH]c3c(C(N)=O)cc(-c4cnn(CCN(C)CCO)c4)cc23)CC1 [Example 268, 3-[1-(ethylsulfonyl)-4-piperidinyl]-5-(1-{2-[(2-hydroxyethyl)(methyl)amino]ethyl}-1H-pyrazol-4-yl)-1H-indole-7-carboxamide] | ≤ 10
4 | CCNCc1cc(CNCC)cc(-c2cc(C(N)=O)c3[nH]cc(C4CCN(S(=O)(=O)CC)CC4)c3c2)c1 [Example 277, 5-{3,5-bis[(ethylamino)methyl]phenyl}-3-[1-(ethylsulfonyl)-4-piperidinyl]-1H-indole-7-carboxamide trifluoroacetate] | > 10
5 | CCS(=O)(=O)N1CCC(c2c[nH]c3c(C(N)=O)cc(-c4cc(CN(C)C)cc(CN(C)C)c4)cc23)CC1 [Example 278, 5-{3,5-bis[(dimethylamino)methyl]phenyl}-3-[1-(ethylsulfonyl)-4-piperidinyl]-1H-indole-7-carboxamide trifluoroacetate] | > 10
6 | CCS(=O)(=O)N1CCC(c2c[nH]c3c(C(N)=O)cc(-c4cccc(C5CCCCN5)c4)cc23)CC1 (stereo not drawn) [Example 279, 3-[1-(ethylsulfonyl)-4-piperidinyl]-5-[3-(2-piperidinyl)phenyl]-1H-indole-7-carboxamide trifluoroacetate] | ≤ 10
7 | CCNC(C)c1cccc(-c2cc(C(N)=O)c3[nH]cc(C4CCN(S(=O)(=O)CC)CC4)c3c2)c1 (stereo not drawn) [Example 280, 5-{3-[1-(ethylamino)ethyl]phenyl}-3-[1-(ethylsulfonyl)-4-piperidinyl]-1H-indole-7-carboxamide trifluoroacetate] | ≤ 10
8 | CCS(=O)(=O)N1CCC(c2c[nH]c3c(C(N)=O)cc(-c4cccc(C(C)N(C)C)c4)cc23)CC1 (stereo not drawn) [Example 281, 5-{3-[1-(dimethylamino)ethyl]phenyl}-3-[1-(ethylsulfonyl)-4-piperidinyl]-1H-indole-7-carboxamide trifluoroacetate] | ≤ 10
9 | CCS(=O)(=O)N1CCC(c2c[nH]c3c(C(N)=O)cc(-c4cc(F)cc(CNC)c4)cc23)CC1 [Example 282, 3-[1-(ethylsulfonyl)-4-piperidinyl]-5-{3-fluoro-5-[(methylamino)methyl]phenyl}-1H-indole-7-carboxamide trifluoroacetate] | ≤ 10
10 | CCNCc1cc(F)cc(-c2cc(C(N)=O)c3[nH]cc(C4CCN(S(=O)(=O)CC)CC4)c3c2)c1 [Example 283, 5-{3-[(ethylamino)methyl]-5-fluorophenyl}-3-[1-(ethylsulfonyl)-4-piperidinyl]-1H-indole-7-carboxamide trifluoroacetate] | ≤ 10
11 | CCCNCc1cc(F)cc(-c2cc(C(N)=O)c3[nH]cc(C4CCN(S(=O)(=O)CC)CC4)c3c2)c1 [Example 284, 3-[1-(ethylsulfonyl)-4-piperidinyl]-5-{3-fluoro-5-[(propylamino)methyl]phenyl}-1H-indole-7-carboxamide trifluoroacetate] | ≤ 10
12 | CCS(=O)(=O)N1CCC(c2c[nH]c3c(C(N)=O)cc(-c4cc(F)cc(CNC(C)C)c4)cc23)CC1 [Example 285, 3-[1-(ethylsulfonyl)-4-piperidinyl]-5-(3-fluoro-5-{[(1-methylethyl)amino]methyl}phenyl)-1H-indole-7-carboxamide trifluoroacetate] | ≤ 10
13 | CCS(=O)(=O)N1CCC(c2c[nH]c3c(C(N)=O)cc(-c4cc(F)cc(CNCC(C)C)c4)cc23)CC1 [Example 286, 3-[1-(ethylsulfonyl)-4-piperidinyl]-5-(3-fluoro-5-{[(2-methylpropyl)amino]methyl}phenyl)-1H-indole-7-carboxamide trifluoroacetate] | ≤ 10
14 | CCS(=O)(=O)N1CCC(c2c[nH]c3c(C(N)=O)cc(-c4cc(F)cc(CNC5CCC5)c4)cc23)CC1 [Example 287, 5-{3-[(cyclobutylamino)methyl]-5-fluorophenyl}-3-[1-(ethylsulfonyl)-4-piperidinyl]-1H-indole-7-carboxamide trifluoroacetate] | ≤ 10
15 | CCS(=O)(=O)N1CCC(c2c[nH]c3c(C(N)=O)cc(-c4cc(F)cc(CN(C)C)c4)cc23)CC1 [Example 288, 5-{3-[(dimethylamino)methyl]-5-fluorophenyl}-3-[1-(ethylsulfonyl)-4-piperidinyl]-1H-indole-7-carboxamide trifluoroacetate] | ≤ 10
16 | CCS(=O)(=O)N1CCC(c2c[nH]c3c(C(N)=O)cc(-c4cc(F)cc(CN5CCCC5)c4)cc23)CC1 [Example 289, 3-[1-(ethylsulfonyl)-4-piperidinyl]-5-[3-fluoro-5-(1-pyrrolidinylmethyl)phenyl]-1H-indole-7-carboxamide trifluoroacetate] | ≤ 10

Continued, values first:

Row | IC50 [µM] | Compound
17 | ≤ 10 | CCS(=O)(=O)N1CCC(c2c[nH]c3c(C(N)=O)cc(-c4cc(F)cc(CN5CCOCC5)c4)cc23)CC1 [Example 290, 3-[1-(ethylsulfonyl)-4-piperidinyl]-5-[3-fluoro-5-(4-morpholinylmethyl)phenyl]-1H-indole-7-carboxamide trifluoroacetate]
18 | ≤ 10 | CCS(=O)(=O)N1CCC(c2c[nH]c3c(C(N)=O)cc(-c4cc(F)cc(CN5CCCCC5)c4)cc23)CC1 [Example 291, 3-[1-(ethylsulfonyl)-4-piperidinyl]-5-[3-fluoro-5-(1-piperidinylmethyl)phenyl]-1H-indole-7-carboxamide trifluoroacetate]
19 | ≤ 10 | CCS(=O)(=O)N1CCC(c2c[nH]c3c(C(N)=O)cc(-c4csc(CN5CCCCC5)n4)cc23)CC1 [Example 354, 3-[1-(ethylsulfonyl)-4-piperidinyl]-5-[2-(1-piperidinylmethyl)-1,3-thiazol-4-yl]-1H-indole-7-carboxamide]
20 | ≤ 10 | CCS(=O)(=O)N1CCC(c2c[nH]c3c(C(N)=O)cc(-c4cccc(CNS(=O)(=O)c5csc6ccccc56)c4)cc23)CC1 [Example 382, 5-(3-{[(1-benzothien-3-ylsulfonyl)amino]methyl}phenyl)-3-[1-(ethylsulfonyl)-4-piperidinyl]-1H-indole-7-carboxamide]
21 | ≤ 10 | CCS(=O)(=O)N1CCC(c2c[nH]c3c(C(N)=O)cc(-c4cccc(CNS(=O)(=O)c5ccc(F)c(F)c5)c4)cc23)CC1 [Example 384, 5-[3-({[(3,4-difluorophenyl)sulfonyl]amino}methyl)phenyl]-3-[1-(ethylsulfonyl)-4-piperidinyl]-1H-indole-7-carboxamide]
22 | ≤ 10 | CCS(=O)(=O)N1CCC(c2c[nH]c3c(C(N)=O)cc(-c4ccc(NS(=O)(=O)C5CCCC5)cc4)cc23)CC1 [Example 387, 5-{4-[(cyclopentylsulfonyl)amino]phenyl}-3-[1-(ethylsulfonyl)-4-piperidinyl]-1H-indole-7-carboxamide trifluoroacetate]
23 | ≤ 10 | CCS(=O)(=O)N1CCC(c2c[nH]c3c(C(N)=O)cc(-c4cccc(CNOC)c4)cc23)CC1 [Example 391, 3-[1-(ethylsulfonyl)-4-piperidinyl]-5-(3-{[(methyloxy)amino]methyl}phenyl)-1H-indole-7-carboxamide]
24 | ≤ 10 | CC(C)S(=O)(=O)N1CCC(c2c[nH]c3c(C(N)=O)cc(-c4csc(CN(C)CC(N)=O)c4)cc23)CC1 [Example 398, 5-(5-{[(2-amino-2-oxoethyl)(methyl)amino]methyl}-3-thienyl)-3-{1-[(1-methylethyl)sulfonyl]-4-piperidinyl}-1H-indole-7-carboxamide]

From US8063071B2 (GlaxoSmithKline, LLC, priority 2007, dated 2011)
